Numbers after ± are expanded uncertainties.
Conditions: 101.33 kPa, Liquid; for viscosity: Concentric cylinders viscometry; for thermal conductivity: Hot wire method

OCCO [1,2-ethanediol]
Conditions | thermal conductivity [W/m/K] | viscosity [mPa·s]
283.15 K | 0.243 ± 0.015 | 35.44 ± 3.6
288.15 K | – | 28 ± 2.8
293.15 K | – | 21.89 ± 2.2
298.15 K | – | 17.25 ± 1.7
303.15 K | 0.246 ± 0.015 | 13.86 ± 1.4
308.15 K | – | 11.64 ± 1.2
313.15 K | – | 9.62 ± 0.97
323.15 K | 0.249 ± 0.015 | 7.21 ± 0.72
343.15 K | 0.259 ± 0.016 | –

Source: the NIST ThermoML archive (doi:10.1016/j.jct.2013.07.002)
